{"source": "paper PMC5740061", "about": "(Nature Communications, 2017)", "key": {"[1]": {"target": "T1, trypsin (Sus scrofa, UniProt P00761)", "T1 sequence (P00761 9-231)": "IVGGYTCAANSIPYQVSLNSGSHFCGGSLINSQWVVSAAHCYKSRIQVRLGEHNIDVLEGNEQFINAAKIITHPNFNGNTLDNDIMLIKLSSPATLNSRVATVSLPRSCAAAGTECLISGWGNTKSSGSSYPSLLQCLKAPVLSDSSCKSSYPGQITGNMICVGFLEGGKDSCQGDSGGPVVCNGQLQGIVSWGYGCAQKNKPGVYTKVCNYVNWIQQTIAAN"}, "[2]": {"target": "T2, TEAD (Homo sapiens, UniProt P28347)", "T2 construct": "GST; made in house; host or cells: Hi5 insect cells (baculovirus, pIEX-BAC3 vector)", "T2 sequence (P28347 209-426)": "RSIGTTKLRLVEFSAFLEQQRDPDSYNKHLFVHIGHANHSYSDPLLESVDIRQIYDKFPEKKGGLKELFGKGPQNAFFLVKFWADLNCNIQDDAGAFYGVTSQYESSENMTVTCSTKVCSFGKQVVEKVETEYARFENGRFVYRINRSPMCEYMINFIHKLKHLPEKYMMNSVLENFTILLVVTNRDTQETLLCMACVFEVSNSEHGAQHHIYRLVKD", "assay": "Surface display TEAD binding by flow cytometry (SDGF, 293F cells)", "settings": "tetravalent staining, SDGF-TB1G1 cells"}, "[3]": {"assay": "Reduction resistance of soluble optides (DTT or glutathione, RP-HPLC, LC/MS)", "format": "physicochemical", "settings": "for reduction with 10 mM DTT: soluble optide, SDS-PAGE, mass spectrometry"}, "[4]": {"target": "T3, YAP:TEAD (Homo sapiens, UniProt P28347)", "format": "binding", "design": "GST; made in house; host or cells: TEAD from Hi5 insect cells", "settings": "293F cells expressing SDGF-YAP, 5 nM TEAD, 0-100 nM optide"}, "[5]": {"target": "T3, YAP:TEAD", "format": "biochemical", "design": "plasmid # 66853; host or cells: 293T cells, RIPA lysates"}, "[6]": {"target": "T2, TEAD", "assay": "Reduction resistance of surface displayed optides (GSH or DTT, then TEAD binding)", "format": "physicochemical", "settings": "10 mM glutathione for 5 mins, then TEAD binding (20 nM, 2-step stain)"}, "[7]": {"target": "T4, chymotrypsin (Bos taurus, UniProt P00766)", "T4 construct": "purchased Promega V1062", "assay": "Protease stability in surface display (SDPR), chymotrypsin", "format": "in vitro ADME", "settings": "40 µg mL^-1 chymotrypsin, SDPR-TB1G2 on 293F cells, then 5 mM DTT and iFluor 647 anti-6xHis staining"}, "[8]": {"target": "T1, trypsin", "assay": "Protease stability in surface display (SDPR), trypsin", "format": "in vitro ADME", "design": "purchased Promega V5111", "settings": "40 µg mL^-1 trypsin, SDPR-TB1G2 on 293F cells, then 5 mM DTT and iFluor 647 anti-6xHis staining"}, "[9]": {"assay": "Circular dichroism thermostability", "format": "physicochemical", "settings": "25-30 µM in 10 mM phosphate buffer pH 7.4, heated 20 to 95 °C at 2 °C per min, 220 nm", "experimental": "Protein secondary structures were assessed using circular dichrosim (CD). CD spectra were measured with a Jasco J-720W spectropolarimeter using a 1.0 mm path length cell. Protein samples (25-30 µM) in 10 mM phosphate buffer (pH 7.4) were analyzed at a wavelength range of 190 to 260 nm. […] Data are expressed in terms of relative ellipticity [θ], reported in mdeg."}, "[10]": {"format": "physicochemical", "settings": "SYPRO Orange, 0.1 mg/mL in PBS, 20 to 95 °C"}, "[11]": {"target": "T3, YAP:TEAD", "format": "cell-based", "design": "endogenous in cells; host or cells: HeLa cells", "settings": "HeLa cells, 5 µM optide with 5 µM dfTAT, 90 min; versus dfTAT alone, P < 0.0001"}, "[12]": {"tested_on": "HeLa cells", "assay": "Cell penetration of DyLight 488 labelled optide in HeLa cells", "format": "cell-based", "settings": "5 µM optide without dfTAT"}}, "note": "“Also recorded” adds a separate entry of the source. Where two headings read alike, the source gives them in different places. Bridge positions count the residues as written; N and C are the ends. Ends that are not written are not given here."}
{"compound": "GSYTDCTESGQNLCLCEGSNVCGKGNKCILGSQGKDNQCVTG (also: bicyclic or more (positions not given here)) [Peptide 5, Hirudin-PA]", "values": [{"measurement": "Trypsin Resistance", "setting": "[1]", "result": 75, "unit": "%"}]}
{"compound": "GSGICACRRRFCLNFEQFSGYCRVNGARYVRCCSRR (also: bicyclic or more (positions not given here)) [Peptide 9, Corticostatin-6]", "values": [{"measurement": "Trypsin Resistance", "setting": "[1]", "result": 65, "unit": "%"}]}
{"compound": "GSKDYCPGICNVAAVPDCDTLCISLGYSGGYCRAGRICCCNPK (also: bicyclic or more (positions not given here)) [Peptide 7, Uncharacterized protein]", "values": [{"measurement": "Trypsin Resistance", "setting": "[1]", "result": 96, "unit": "%"}]}
{"compound": "U9-theraphotoxin-Cj1a [Peptide 11]", "values": [{"measurement": "Trypsin Resistance", "setting": "[1]", "result": 46, "unit": "%"}]}
{"compound": "Beta/delta-agatoxin-6 [Peptide 3]", "values": [{"measurement": "Trypsin Resistance", "setting": "[1]", "result": 102, "unit": "%"}]}
{"compound": "Turripeptide IX-01 [Peptide 8]", "values": [{"measurement": "Trypsin Resistance", "setting": "[1]", "result": 96, "unit": "%"}]}
{"compound": "GSVDGCQETCTKMIRCQFFTYSLFPEDCRGEKCKCSLR (also: bicyclic or more (positions not given here)) [Peptide 16, Plasma kallikrein]", "values": [{"measurement": "Trypsin Resistance", "setting": "[1]", "result": 50, "unit": "%"}]}
{"compound": "CC[C@H](C)[C@@H]1NC(=O)[C@H](CC(=O)O)NC(=O)CNC(=O)[C@H](CCCCN)NC(=O)[C@H](CCCCN)NC(=O)[C@@H]2CSSC[C@@H](C(=O)N3CCC[C@H]3C(=O)O)NC(=O)[C@H](Cc3ccccc3)NC(=O)[C@H](CC(C)C)NC(=O)[C@@H]3CSSC[C@H](NC(=O)[C@H](CSSC[C@H](NC(=O)[C@H](CCC(=O)O)NC(=O)[C@H](CCCCN)NC(=O)[C@H](C)NC(=O)[C@H](CCCNC(=N)N)NC(=O)[C@H](CCC(=O)O)NC(=O)[C@@H](NC(=O)[C@H](Cc4ccc(O)cc4)NC(=O)[C@H](CCC(=O)O)NC(=O)[C@H](CC(=O)O)NC(=O)[C@@H]4CCCN4C(=O)[C@H](CO)NC(=O)CN)[C@@H](C)CC)C(=O)N2)NC(=O)[C@H](CCC(N)=O)NC1=O)C(=O)N[C@@H](CC(C)C)C(=O)N[C@@H](CCCNC(=N)N)C(=O)N[C@@H](Cc1ccc(O)cc1)C(=O)N[C@@H](Cc1ccccc1)C(=O)N[C@@H](CCC(=O)O)C(=O)N[C@@H](CCC(=O)O)C(=O)N[C@@H](CO)C(=O)NCC(=O)N[C@@H](CC(=O)O)C(=O)N1CCC[C@H]1C(=O)N[C@@H](CC(N)=O)C(=O)N[C@@H](C(C)C)C(=O)N[C@@H](CCSC)C(=O)N[C@@H](CC(C)C)C(=O)N[C@@H]([C@@H](C)CC)C(=O)N3", "note": "[TB1G1]", "values": [{"measurement": "TEAD concentration at which binding was still detectible", "setting": "[2]", "result": 64, "unit": "pM"}, {"measurement": "TEAD concentration of peak signal:noise", "setting": "[2]", "result": 8, "unit": "nM"}, {"measurement": "reduction with 10 mM DTT", "setting": "[3]", "result": "complete"}, {"measurement": "inhibition of YAP:TEAD-dependent cell staining", "setting": "[4]", "result": "inhibited YAP:TEAD-dependent cell staining"}, {"measurement": "inhibition of FLAG-YAP co-immunoprecipitation with Myc-TEAD", "setting": "[5]; 293T cell lysate, 30 min at 4 °C", "result": "dose-dependent inhibition"}]}
{"compound": "GSDLVCYCRKRGCKRREHMNGTCRRGHLMYTLCCR (also: bicyclic or more (positions not given here)) [Peptide 10, Alpha-defensin 13]", "values": [{"measurement": "Trypsin Resistance", "setting": "[1]", "result": 43, "unit": "%"}]}
{"compound": "GSPMTCEQAMASCEHTMCGYCQGPLYMTCIGITTDPECGLP (also: bicyclic or more (positions not given here)) [Peptide 6, Mating pheromone Er-2/Er-9]", "values": [{"measurement": "Trypsin Resistance", "setting": "[1]", "result": 97, "unit": "%"}]}
{"compound": "H-GSPDEYIERAKECCKKGDIQCCLRYFEESGDPNVMLICLACP-OH (disulfide 13-21, 14-41, 22-38) [TB1G1-F38A]", "values": [{"measurement": "inhibition of FLAG-YAP co-immunoprecipitation with Myc-TEAD", "setting": "[5]", "result": "not"}]}
{"compound": "GSRGQCWSYSNCRAVCRDEGYVSGHCNYFGGACWCAS (also: bicyclic or more (positions not given here)) [Peptide 13, Putative uncharacterized protein]", "values": [{"measurement": "Trypsin Resistance", "setting": "[1]", "result": 52, "unit": "%"}]}
{"compound": "CC[C@H](C)[C@H](NC(=O)[C@H](Cc1ccc(O)cc1)NC(=O)[C@H](CCC(=O)O)NC(=O)[C@H](CC(=O)O)NC(=O)[C@@H]1CCCN1C(=O)[C@H](CO)NC(=O)CN)C(=O)N[C@@H](CCC(=O)O)C(=O)N[C@@H](CCCNC(=N)N)C(=O)N[C@@H](C)C(=O)N[C@@H](CCCCN)C(=O)N[C@@H](CCC(=O)O)C(=O)N[C@H]1CSSC[C@@H]2NC(=O)[C@H](CCC(N)=O)NC(=O)[C@H]([C@@H](C)CC)NC(=O)[C@H](CC(=O)O)NC(=O)[C@H](CCC(N)=O)NC(=O)[C@H](CCCCN)NC(=O)[C@H](CCCCN)NC(=O)[C@H](CSSC[C@@H](C(=O)N[C@@H](Cc3c[nH]c4ccccc34)C(=O)O)NC(=O)[C@H](Cc3ccccc3)NC(=O)[C@H](CC(C)C)NC(=O)[C@@H]3CSSC[C@H](NC2=O)C(=O)N[C@@H](CC(C)C)C(=O)N[C@@H](CCCNC(=N)N)C(=O)N[C@@H]([C@@H](C)CC)C(=O)N[C@@H](Cc2ccccc2)C(=O)N[C@@H](CC(=O)O)C(=O)N[C@@H](CCC(=O)O)C(=O)N[C@@H](CO)C(=O)N[C@@H](CCCCN)C(=O)N[C@@H](CC(=O)O)C(=O)N2CCC[C@H]2C(=O)N[C@@H](CC(N)=O)C(=O)N[C@@H](C(C)C)C(=O)N[C@@H](CCSC)C(=O)N[C@@H](CC(C)C)C(=O)N[C@@H]([C@@H](C)CC)C(=O)N3)NC1=O", "note": "[TB1G2]", "values": [{"measurement": "stability under intracellular reducing conditions, surface displayed", "setting": "[6]", "result": "no effect on TB1G2 stability"}, {"measurement": "stability under intracellular reducing conditions, soluble", "setting": "[3]; 10 mM glutathione", "result": "no effect on TB1G2 stability"}, {"measurement": "reduction with 10 mM DTT", "setting": "[3]", "result": "incomplete reduction"}, {"measurement": "protease stability in surface display, chymotrypsin", "setting": "[7]", "result": "no change in anti-6xHis staining"}, {"measurement": "inhibition of YAP:TEAD-dependent cell staining", "setting": "[4]", "result": "much higher potency"}, {"measurement": "protease stability in surface display, trypsin", "setting": "[8]", "result": "no change in anti-6xHis staining"}, {"measurement": "thermostability by circular dichroism", "setting": "[9]", "result": "no evidence of altered TB1G2 structure up to 95 °C; also recorded: identical before (Pre) and after (Post) incubation at 95 °C"}, {"measurement": "melting temperature", "setting": "[10]", "result": "no melting temperature could be determined"}, {"measurement": "YAP:TEAD PLA speckles per nucleus", "setting": "[11]", "result": "reduction in speckles"}, {"measurement": "cell penetration", "setting": "[12]", "result": "failed to demonstrate cell penetration; also recorded: not yet cell penetrant"}]}
{"compound": "GSKEICERPNGSCRDFCLETEIHVGRCLNSQPCCLPL (also: bicyclic or more (positions not given here)) [Peptide 4, Beta-defensin 108B]", "values": [{"measurement": "Trypsin Resistance", "setting": "[1]", "result": 95, "unit": "%"}]}
{"compound": "GSSVPCVSTRGSCKPPAPACCHPCASCQCRFFRSACSCRVLNVNC (also: bicyclic or more (positions not given here)) [Peptide 12, Agouti-signaling protein]", "values": [{"measurement": "Trypsin Resistance", "setting": "[1]", "result": 60, "unit": "%"}]}
{"compound": "Venom defensin-like peptide A [Peptide 2]", "values": [{"measurement": "Trypsin Resistance", "setting": "[1]", "result": 84, "unit": "%"}]}
{"compound": "GSAPPCKRDVDCSFECPKGGFCNDRLGTCDCF (also: bicyclic or more (positions not given here)) [Peptide 1, Putative defensin-like protein 257]", "values": [{"measurement": "Trypsin Resistance", "setting": "[1]", "result": 90, "unit": "%"}]}
{"compound": "CC[C@H](C)[C@H](NC(=O)[C@H](Cc1ccc(O)cc1)NC(=O)[C@H](CCC(=O)O)NC(=O)[C@H](CC(=O)O)NC(=O)[C@@H]1CCCN1C(=O)[C@H](CO)NC(=O)CN)C(=O)N[C@@H](CCC(=O)O)C(=O)N[C@@H](CCCNC(=N)N)C(=O)N[C@@H](C)C(=O)N[C@@H](CCCCN)C(=O)N[C@@H](CCC(=O)O)C(=O)N[C@H]1CSSC[C@@H]2NC(=O)[C@H](CCC(N)=O)NC(=O)[C@H]([C@@H](C)CC)NC(=O)[C@H](CC(=O)O)NC(=O)[C@H](CCC(N)=O)NC(=O)[C@H](CCCCN)NC(=O)[C@H](CCCCN)NC(=O)[C@H](CSSC[C@@H](C(=O)N3CCC[C@H]3C(=O)O)NC(=O)[C@H](Cc3ccccc3)NC(=O)[C@H](CC(C)C)NC(=O)[C@@H]3CSSC[C@H](NC2=O)C(=O)N[C@@H](CC(C)C)C(=O)N[C@@H](CCCNC(=N)N)C(=O)N[C@@H]([C@@H](C)CC)C(=O)N[C@@H](Cc2ccccc2)C(=O)N[C@@H](CC(=O)O)C(=O)N[C@@H](CCC(=O)O)C(=O)N[C@@H](CO)C(=O)N[C@@H](CCCCN)C(=O)N[C@@H](CC(=O)O)C(=O)N2CCC[C@H]2C(=O)N[C@@H](CC(N)=O)C(=O)N[C@@H](C(C)C)C(=O)N[C@@H](CCSC)C(=O)N[C@@H](CC(C)C)C(=O)N[C@@H]([C@@H](C)CC)C(=O)N3)NC1=O", "note": "[TB1G2-W40P]", "values": [{"measurement": "thermostability by circular dichroism", "setting": "[9]", "result": "identical before (Pre) and after (Post) incubation at 95 °C"}, {"measurement": "melting temperature", "setting": "[10]", "result": "no melting temperature could be determined"}]}
